In patent US20240018105A1, “TROPOLONE DERIVATIVES AND TAUTOMERS THEREOF FOR IRON REGULATION IN ANIMALS” (Kinesid Therapeutics, Inc., priority 2019, published 2024):

Key:
[1] = Ligand facilitated Fe(III) efflux from liposomes; settings: 10 uM ligand concentration
In short: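 POPC:cholesterol liposomes loaded with Fe(III)-citrate (pH 7.0), used at 1 mM phosphorus with 1 mM ferrozine outside. Ligand at 40–1.25 μM final, in triplicate; absorbance at 562 nm read every 60 s for 120 min. Efflux rate k from single-phase association fit, averaged over triplicates.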

[2] = test system: DMT1-deficient Caco-2 cells; assay: shDMT1-Caco2 55Fe transport assay; type: cell-based
From the text: Assay 2: shDMT1-Caco2 ^55Fe Transport Assay to Assess Ligand Ability in Transporting Fe (III)
Cells: DMT1-deficient Caco-2 cells (alias: “shDMT1,” or “4A” cells) were from Grillo et al. Science, 2017, and were cryopreserved in liquid nitrogen prior to use.
Reagents and supplies: ^55FeCl3 was obtained from PerkinElmer (Boston, MA). Iron(III) chloride (FeCl3) hexahydrate was obtained from Sigma. Dulbecco's Modified Eagle Medium (DMEM), fetal bovine serum (FBS), L-glutamine, MEM nonessential amino acids, penicillin-streptomycin, G418, formic acid, methanol, high-purity water, ammonium formate, dimethyl sulfoxide (DMSO) were purchased from Fisher Scientific. Propranolol, atenolol and carbutamide were obtained from Sigma-Aldrich Chemical Company (St Louis, MO). Scintillation cocktail was obtained from Research Product International Co. (Mount Prospect, IL). Stericup filter system (PES membrane, 0.22 um pore size) was purchased from Fisher Scientific. Coming item #3378 24-well transwell insert plates. Test articles: known compounds hinokitiol and deferiprone were purchased from Sigma. They are tested side by side with the small molecule ligands disclosed in this application. DMSO stocks (10 mM, which is 1,000× of the 10 μM dose level) of hinokitiol or test articles were prepared. A stock solution of 25 mM deferiprone in DMSO was prepared. The DMSO stock solutions were stored at −20° C. or below when not in use.
The growth medium was prepared according to the following table
Apical media (serum free DMEM, 10 mM MES, pH 6.5) was prepared. Apical master mix media was prepared fresh with the addition of 200 nM ^55Fe before each experiment. For the negative control propranolol and atenolol wells, 200 nM of non-radioactive iron was used.
The basolateral media was serum-free DMEM, 10 mM HEPES, 2% bovine serum albumin (BSA), pH 7.4.
For each experiment, cells were seeded into the 24-well transwell plates (0.5 mL of 50,000 cells/mL) with growth media. The basolateral companion plate was loaded with 1 mL of growth media. After 12-24 hr, both the apical and basolateral chamber were replaced with growth media. The apical media was changed 3× per week for 21-28 days, including a media change exactly 48 hr before the assay date.
On the assay day, the TEER values were measured and the average TEER values was obtained. Individual wells with TEER vaule >35% lower than the average of all wells were excluded. For the qualified wells, the apical layer (twice) and basolaterial (once) chambers were washed with PBS. The basolateral companion plate was then filled with 1 mL of basolateral media. Via addition down the side-wall of the apical well, 300 μL per well of the apical assay master mix, with the indicated dose level of test article, was added. Each dose was tested in triplicate. The plates were incubated (5% CO2 and 90% humidity at 37° C.) for the indicated timepoints. At each indicated timepoint, the basolateral supernatant was gently mixed via pipetting, and 200 μL of the basolateral supernatant was transferred to scintillation vials. To each scintillation counting vial, 5 mL of scintillation cocktail fluid was added. For each scintillation vial, the radioactivity (CPM) was determined with liquid scintillation counter LS6500. The counting time per vial was 5 min.
All raw CPM values are divided by the average value of blank DMSO solution to give a fold of change above the DMSO value. The mean and standard deviation of each compound at each concentration level and at each time point measured was calculated to give the fold change (fc) value.
For rank order compounds, the fc value of a ligand at 4 h time point is further divided by the fold change (fc) value of hinokitiol (a positive control compound) at an equimolar concentration to arrive at the FC (normalized fold of change) value. Data reported in Tables 1 and 2 is 4 hr time point FC=fc-ligand @ 3 uM/fc-hino @ 3 uM, and FC hino=1.

[3] = Human liver microsomal stability assay; type: in vitro ADME
From the text: (§1) Compounds of the present disclosure were further evaluated in standard in vitro and in vivo Absorption, Distribution, Metabolism, Excretion (ADME) and Drug Metabolism and Pharmacokinetics (DMPK) assays to assess drug profiles important for further drug development.
(§2) Such assessments included human and mouse liver microsomal stability assays as well as 6-hour mouse PK studies.

[4] = Mouse liver microsomal stability assay; type: in vitro ADME
From the text: as §1, §2

[5] = Mouse 6-hour PK study; settings: in vivo
From the text: as §1, §2

| Caco2 shDMT1 transport FC @ 3 μM, 4h ([2]; Caco-2) | half-life ([3]; human, microsomes) | microsomal CLint ([3]; human, microsomes) | half-life ([4]; mouse, microsomes) | microsomal CLint ([4]; mouse, microsomes) | AUC(0-t) [5] | Cmax [5] | half-life [5] | SMILES | Liposome Fe transport kefflux at 10 10 μM ([1]; Table 1) | mouse 6-hour PK properties compared to hinokitiol [5] | clearence half-life (t1/2) and/or intrinsic clearence (CLint) compared to hinokitiol ([3]; microsomes) | Liposome Fe transport Kefflux at 10 μM ([1]; Table 2) | Liposome Fe transport Kefflux at 10 μM ([1]; Table 1) | Caco2 shDMT1 transport FC @ 3 μM, 4h ([2]; 3 μM, 4 h, fold change normalized to hinokitiol (FC hino=1), Table 1) | Caco2 shDMT1 transport FC @ 3 μM, 4h ([2]; 3 μM, 4 h, fold change normalized to hinokitiol (FC hino=1), Table 2) | microsomal CLint ([3]; human liver microsomes, Table 4, read-out: Human CLint) | half-life ([3]; human liver microsomes, Table 4, read-out: Human t1/2) | microsomal CLint ([4]; mouse liver microsomes, Table 4, read-out: Mouse CLint) | half-life ([4]; mouse liver microsomes, Table 4, read-out: Mouse t1/2) |
| --- | --- | --- | --- | --- | --- | --- | --- | --- | --- | --- | --- | --- | --- | --- | --- | --- | --- | --- | --- |
| 0.01-0.5 | > 2 h | < 11.6 µL/min/mg | > 2 h | < 11.6 µL/min/mg | 5000 to 20000 ng·h/mL | 5000 to 20000 ng/mL | < 1.25 h | O=c1cccc(-c2cncc(F)c2)cc1O [Ex.1, 4-(5-fluoropyridin-3-yl)-2-hydroxycyclohepta-2,4,6-trien-1-one] | 5-7.5 | one or more improved mouse 6-hour PK properties compared to hinokitiol | – | – | – | – | – | – | – | – | – |
| 0.01-0.5 | > 2 h | < 11.6 µL/min/mg | > 2 h | < 11.6 µL/min/mg | 5000 to 20000 ng·h/mL | 1500 to 5000 ng/mL | 1.25 to 4.99 h | O=c1cccc(-c2ccc(F)cn2)cc1O [Ex.3, 4-(5-fluoropyridin-2-yl)-2-hydroxycyclohepta-2,4,6-trien-1-one] | 5-7.5 | one or more improved mouse 6-hour PK properties compared to hinokitiol | – | – | – | – | – | – | – | – | – |
| 0.5-1 | > 2 h | < 11.6 µL/min/mg | 1.38 h | 16.7 µL/min/mg | > 20000 ng·h/mL | 5000 to 20000 ng/mL | 1.25 to 4.99 h | Cc1ccc(-c2cncc(F)c2)cc(O)c1=O [Ex.16, 4-(5-fluoropyridin-3-yl)-2-hydroxy-7-methylcyclohepta-2,4,6-trien-1-one] | 10-25 | one or more improved mouse 6-hour PK properties compared to hinokitiol | – | – | – | – | – | – | – | – | – |
| 0.01-0.5 | > 2 h | < 11.6 µL/min/mg | > 2 h | < 11.6 µL/min/mg | > 20000 ng·h/mL | 5000 to 20000 ng/mL | 1.25 to 4.99 h | Cc1c(F)cncc1-c1ccc([O-])c(=O)cc1.[Na+] [Ex.23, sodium 4-(5-fluoro-4-methylpyridin-3-yl)-7-oxocyclohepta-1,3,5-trien-1-olate] | 10-25 | one or more improved mouse 6-hour PK properties compared to hinokitiol | – | – | – | – | – | – | – | – | – |
| 0.01-0.5 | > 2.5 h | < 25 µL/min/mg | > 2.5 h | < 25 µL/min/mg | 1500 to 5000 ng·h/mL | 1500 to 5000 ng/mL | 1.25 to 4.99 h | O=c1ccccc(-c2ccc(F)cn2)c1O [Ex.26, 3-(5-fluoropyridin-2-yl)-2-hydroxycyclohepta-2,4,6-trien-1-one] | 10-25 | one or more improved mouse 6-hour PK properties compared to hinokitiol | longer clearence half-life (t1/2) and/or lower intrinsic clearence (CLint) than hinokitiol | – | – | – | – | – | – | – | – |
| 0.01-0.5 | > 2 h | < 11.6 µL/min/mg | > 2 h | < 11.6 µL/min/mg | 1500 to 5000 ng·h/mL | 1500 to 5000 ng/mL | 1.25 to 4.99 h | Cc1ncc(-c2cccc(=O)c(O)c2)cn1 [Ex.31, 2-hydroxy-4-(2-methylpyrimidin-5-yl)cyclohepta-2,4,6-trien-1-one] | 0.1-5 | one or more improved mouse 6-hour PK properties compared to hinokitiol | – | – | – | – | – | – | – | – | – |
| 0.01-0.5 | > 2 h | < 11.6 µL/min/mg | > 2 h | < 11.6 µL/min/mg | 5000 to 20000 ng·h/mL | 1500 to 5000 ng/mL | 1.25 to 4.99 h | Cc1ncc(-c2cccc(=O)c(O)c2)c(C)n1 [Ex.32, 4-(2,4-dimethylpyrimidin-5-yl)-2-hydroxycyclohepta-2,4,6-trien-1-one] | 5-7.5 | one or more improved mouse 6-hour PK properties compared to hinokitiol | – | – | – | – | – | – | – | – | – |
| 0.01-0.5 | > 2 h | < 11.6 µL/min/mg | > 2 h | < 11.6 µL/min/mg | 1500 to 5000 ng·h/mL | 500 to 1500 ng/mL | 1.25 to 4.99 h | O=c1cccc(-c2cnc(C3CC3)nc2)cc1O [Ex.37] | 5-7.5 | one or more improved mouse 6-hour PK properties compared to hinokitiol | – | – | – | – | – | – | – | – | – |
| 0.01-0.5 | > 2 h | < 11.6 µL/min/mg | > 2 h | < 11.6 µL/min/mg | 1500 to 5000 ng·h/mL | 500 to 1500 ng/mL | 1.25 to 4.99 h | Cc1ncc(-c2cccc(=O)c(O)c2)cc1F [Ex.57, 4-(5-fluoro-6-methylpyridin-3-yl)-2-hydroxycyclohepta-2,4,6-trien-1-one] | 7.5-10 | one or more improved mouse 6-hour PK properties compared to hinokitiol | – | – | – | – | – | – | – | – | – |
| 0.01-0.5 | – | – | – | – | 1500 to 5000 ng·h/mL | 1500 to 5000 ng/mL | 1.25 to 4.99 h | O=c1ccccc(Oc2ccc(F)cc2F)c1O [Ex.67, 3-(2,4-difluorophenoxy)-2-hydroxycyclohepta-2,4,6-trien-1-one] | – | one or more improved mouse 6-hour PK properties compared to hinokitiol | – | <0.1 | – | – | – | – | – | – | – |
| – | – | – | – | – | – | – | – | CC(C)c1cccc(=O)c(O)c1 [hinokitiol, reference compound] | – | – | – | 7.77 | 7.77 | 1 | 1.00 | 150 µL/min/mg | 0.153 h | 43.4 µL/min/mg | 0.533 h |
